Our source for the melting point values is a melting point compilation (Tetko et al.).

For orientation: melting point means the temperature of the solid-liquid transition.

Structures are written as SMILES.

In turn, `COC(=O)c1cc(I)ccc1O` gave a melting point of 77 °C.
`Cc1c(C(=O)O)nnn1-c1cccc(C(F)(F)F)c1` showed a melting point of 155 to 156 °C.
The result for `CCCCCCCC(=O)OCCC` reads -46.2 °C; that for `Cc1ccc(N=C2NCCN2)c(Cl)c1`, 149 °C.
Molecule `Cc1cc(O)no1` had a melting point of 86.5 °C.
The molecule `NC(=O)c1nc(-c2ccccc2)n(-c2ccc(Cl)c(COCC(F)(F)C(F)(F)F)c2)n1` showed a melting point of 146 °C.
Molecule `Cc1cc2c(C#N)c3n(C)c4ccccc4n3c(=O)c2c(C)n1` gave a melting point of 321 °C.
Molecule `O=C(Nc1ccccc1)Nc1nnc(C(F)(F)F)s1` gave a melting point of 149 to 151 °C.
On to `CCCCCCCCc1ccc(NC(=O)c2ccc(C)cc2)cc1`, for which the melting point is 113 °C.
The result for `O=C1c2ccccc2OC(CCCl)N1O` (configuration not stated) reads 114 to 116 °C.
For the molecule `NNC(=O)c1cc2cc(OCc3ccccc3)ccc2[nH]1`, the melting point lay in the range of 219 to 221 °C.
With `COc1ccc(C2Nn3c(nnc3-c3ccc([N+](=O)[O-])cc3)S2)cc1` (configuration not stated) the figure was 153 °C.
In turn, `COc1ccc(C=C2C(=O)NC(=O)NC2=O)cc1OC` had a melting point of 265 °C.
`CCc1ccc(C#Cc2ccc(C)cc2)cc1` yielded a melting point of 73 °C.
As to `O=C(O)CCCCC=C(c1ccccc1)c1cccnc1`, the melting point came to 114 °C.
`O=C(OC(C(=O)O)C(OC(=O)c1ccccc1)C(=O)O)c1ccccc1` (configuration not stated) had a melting point of 155 °C.
Take `O=C(O)/C(=C/c1ccccc1[N+](=O)[O-])c1ccc([N+](=O)[O-])cc1`: the melting point was found to be 184 °C.
On to `Oc1c(Br)cc(Br)cc1Br`, for which the melting point was 95.5 °C.
With `CC(=O)Oc1ccc2c(c1)c(OC(C)=O)c(-c1ccccc1)n2OC(C)=O` the figure was 194 to 196 °C.
`CCOc1ccccc1C=O` came in with a melting point of 21 °C.
The result for `O=S(=O)(Cl)c1ccc2c(c1)OCO2` reads 48 to 51 °C; that for `NC(=S)Nc1ccc(F)cc1`, 162 to 167 °C.
The result for `Cc1n[nH]c2c(=O)n(C(C)C)c(C)nc12` reads 143 to 145 °C; that for `Cc1cc(C)c(C2(C)CC(C(=O)c3cc4cc(Br)ccc4o3)C2)c(C)c1` (configuration not stated), 208 to 209 °C.
Consider `Cc1cc(C(=O)NN)[nH]n1`, for which the melting point was in the range of 157 to 158 °C.
On to `O=C(O)CNC(=O)c1ccccc1O`, for which the melting point is 168 °C.
Take `Cc1ccc(S(=O)(=O)c2ccccc2)cc1`: the melting point amounted to 127 °C.
With `CCCCNC(=O)OCC#CI` the figure was 66 °C; with `CC1CCCS1` (configuration not stated), -101 °C.
`OCCOCCOCCOCCOCCOCCO` showed a melting point of 6 °C.
With `Clc1ccc(/C=C(\Oc2ccc(Cl)cc2Cl)c2nc3ccccc3s2)cc1` the figure was 156 °C; with `Cc1[nH]c2ccccc2c1C`, 106 °C; with `CC1=C(C(=O)Nc2ccccc2)CCCO1`, 110 °C.
With `CN1c2ccccc2C(C)(C)C12C=Cc1cc([N+](=O)[O-])ccc1O2` (configuration not stated) the figure was 180 °C.
In turn, `O=C(O)CCCOc1ccccc1` gave a melting point of 63 °C.
With `O=c1c2ccccc2cc2c3ccccc3ccn12` the figure was 147 °C; with `O=C(Nc1ccc(C=Cc2ccc(NC(=O)c3ccccc3)cc2)cc1)c1ccccc1`, 352 °C; with `Nc1nn2c(C(F)(F)F)cc(-c3cccs3)nc2c1/N=N/c1ccc(F)cc1`, 220 °C.
The molecule `CCCCCCOCCOCCO` returned a melting point of -40 °C.
As for `O=C(O)CCNC(=O)CCl`, the melting point fell in the range of 91 to 92 °C.
For `COc1cc2c(cc1OC)C(C(=O)O)C2` (configuration not stated), the melting point fell in the range of 134 to 143 °C.
The result for `CC(C)(C)OC(=O)N1CCC(O)CC1` reads 63 °C; that for `CC1=C(c2ccccc2)C(=O)N(C(C)(C)c2cc(Cl)cc(Cl)c2)CO1`, 150 °C.
Regarding `CCOC(=O)CNC(c1ccccc1)(c1ccccc1)c1ccccc1`, the melting point is 114 °C.
With `Clc1ccc(COC(Cn2ccnc2)c2ccc(Cl)cc2Cl)cc1` (configuration not stated) the figure was 86.8 °C; with `O=C(OCCC(OC(=O)c1ccccc1)c1ccccc1)c1ccccc1` (configuration not stated), 51 °C; with `Cc1cccc(NC(=O)c2cncc(Cl)n2)c1`, 84 °C.
In the case of `COc1cc(C=C(O)C(F)(F)C(F)(F)F)nc(OC)n1`, the melting point fell in the range of 58 to 60 °C.
The result for `Cc1n[nH]c(C)c1-c1ccccc1` reads 133 to 134 °C.
The result for `NC(=NO)c1cccc(Cl)c1Cl` reads 139 to 140 °C; that for `Cc1nn(-c2ccccc2)c(C)c1CO`, 106 to 110 °C.
Molecule `CCOC(=O)C1CCN(c2nc(Cl)nc(Cl)n2)CC1` showed a melting point of 150 °C.
With `CC12CCC3C(C1CCC2=O)C1(CC2CC(=O)CCC23C)OCCO1` (configuration not stated), the melting point was 205 to 208 °C.
The molecule `CC12CCC(O)CC1CCC1C2CC(O)C2(C)C(C3=CC(=O)OC3)CCC12O` (configuration not stated) displayed a melting point of 222 °C.
`CCCCCCCCCCC(=O)c1ccccc1` yielded a melting point of 28 to 30 °C.
`CCOCOC(=O)c1ccccc1Nc1c(Cl)ccc(C)c1Cl` showed a melting point of 73.5 °C.
With `O=C=NC1CCC(N=C=O)CC1` (configuration not stated) the figure was 59 to 64 °C; with `NS(=O)(=O)c1ccc(S(=O)(=O)CCCCO)c(F)c1`, 134 °C; with `COC(=O)C1CC(=O)CN1C(=O)OC(C)(C)C` (configuration not stated), 38 °C.
The result for `O=C=Nc1ccc(Oc2ccc(N=C=O)cc2)cc1` reads 62 to 66 °C.
`ON=Cc1cc(Br)c(O)c(Br)c1` yielded a melting point of 198 to 201 °C.
Turning to `O=C(O)C1(C(=O)Nc2ccc(Cl)cc2Cl)CC1`, the melting point was 195 °C.
Regarding `O=S(=O)(Cl)c1ccccc1I`, the melting point lay in the range of 51 to 52 °C.
The result for `Brc1cccc(Br)n1` reads 119 °C.
As for `CCOC(=O)c1c(C)n(O)c2ccc3nonc3c12`, the melting point was in the range of 229 to 231 °C.
For `CCCCCCCCCCCCCCCCCCCCCCCO`, the melting point was 74 to 76 °C.
Regarding `Cc1ccc(S(=O)(=O)OC2CCC3(C)C(CCC4C5CCCC5(C)CCC43)C2)cc1` (configuration not stated), the melting point lay within 129 to 131 °C.
In turn, `FC(F)(F)c1ccccc1-n1ccnc1` showed a melting point of 52 °C.
On to `O=[N+]([O-])c1ccc(-c2nnc3n2NC(c2ccccc2O)S3)cc1` (configuration not stated), for which the melting point was found to be 195 °C.
`c1ccc(-c2ccccc2P(C2CCCCC2)C2CCCCC2)cc1` yielded a melting point of 102 to 106 °C.
The result for `O=S(=O)(O)c1ccc2ccccc2c1` reads 91 °C; that for `COc1ccc(-c2csnn2)cc1`, 89 to 93 °C.
Regarding `O=C(O)c1cc2cc(Br)ccc2oc1=O`, the melting point is 195 °C.
In turn, `CN(CCO)c1cc(C(F)(F)F)nc2ccccc12` came in with a melting point of 90.5 to 92.5 °C.
The molecule `C=CCC(=O)N1CCN(C(=O)OCC2c3ccccc3-c3ccccc32)CC1` registered a melting point of 105 to 107 °C.
Take `CC(C)(C)OC(=O)N1CCCC(Oc2ccccc2[N+](=O)[O-])C1` (configuration not stated): the melting point lay in the range of 74 to 75 °C.
In turn, `NN1C(=O)c2cccc3cccc(c23)C1=O` registered a melting point of 265 to 266 °C.
